Activity calls are given as the source filed them. The rule behind the calls is not given here.

The test system of one experiment is MCF7. Kind of experiment: Antiproliferative activity against human MCF7 cells assessed as cell growth inhibition after 72 hrs by SRB assay. It counts as functional, cell-based. Conditions: MCF7, 72 h.
For experiment [1], the system named is MGC-803. Put plainly: Antiproliferative activity against human MGC-803 cells assessed as cell growth inhibition after 72 hrs by SRB assay. In kind it is functional, cell-based. The note with it: MGC-803, 72 h.
The next experiment deals with U-937. Put plainly: Antiproliferative activity against human U-937 cells assessed as cell growth inhibition after 72 hrs by CCK8 assay. It counts as functional, cell-based. The note with it: U-937, 72 h. (In general: Formazan colour is commonly taken as a measure of viable cells.)
The next experiment has as its system HeLa. Put plainly: Antiproliferative activity against human HeLa cells assessed as cell growth inhibition after 72 hrs by SRB assay. It counts as functional, cell-based. In general terms: The SRB assay estimates cell density from bound dye.
The next experiment concerns HepG2. Put plainly: Antiproliferative activity against human HepG2 cells assessed as cell growth inhibition after 72 hrs by SRB assay. Conditions: HepG2, 72 h. It counts as functional, cell-based.
The subject of another experiment is A549. Kind of experiment: Antiproliferative activity against human A549 cells assessed as cell growth inhibition after 72 hrs by SRB assay. In kind it is functional, cell-based. Conditions: A549, 72 h.
Another experiment deals with Tubulin. Put plainly: Inhibition of tubulin polymerization (unknown origin) measured after 1 min by fluorescence assay. It counts as protein-complex assay, Homo sapiens.
Another experiment concerns the target Histone deacetylase. Put plainly: Inhibition of HDAC (unknown origin). It counts as protein assay, Homo sapiens.
The target of the next experiment is Histone deacetylase 1 (Homo sapiens, UniProt Q13547). Kind of experiment: Inhibition of HDAC1 (unknown origin).
Histone deacetylase 1, sequence (Q13547 whole entry): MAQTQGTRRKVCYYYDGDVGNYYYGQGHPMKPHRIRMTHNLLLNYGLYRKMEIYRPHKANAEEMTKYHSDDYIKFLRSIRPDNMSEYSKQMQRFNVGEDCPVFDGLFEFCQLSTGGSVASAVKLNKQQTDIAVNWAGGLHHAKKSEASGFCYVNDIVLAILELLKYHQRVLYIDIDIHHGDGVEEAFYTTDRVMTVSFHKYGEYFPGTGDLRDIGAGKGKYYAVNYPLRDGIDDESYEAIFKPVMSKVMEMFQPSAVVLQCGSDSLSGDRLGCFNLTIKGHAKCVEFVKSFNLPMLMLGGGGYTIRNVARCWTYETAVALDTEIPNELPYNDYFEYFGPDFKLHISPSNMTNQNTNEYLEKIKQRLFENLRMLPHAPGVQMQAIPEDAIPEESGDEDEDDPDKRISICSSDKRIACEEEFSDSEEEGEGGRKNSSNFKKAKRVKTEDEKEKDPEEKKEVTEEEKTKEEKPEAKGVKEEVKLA
The next experiment deals with T1, Histone deacetylase 8 (Homo sapiens, UniProt Q9BY41).
T1 sequence (Q9BY41 whole entry): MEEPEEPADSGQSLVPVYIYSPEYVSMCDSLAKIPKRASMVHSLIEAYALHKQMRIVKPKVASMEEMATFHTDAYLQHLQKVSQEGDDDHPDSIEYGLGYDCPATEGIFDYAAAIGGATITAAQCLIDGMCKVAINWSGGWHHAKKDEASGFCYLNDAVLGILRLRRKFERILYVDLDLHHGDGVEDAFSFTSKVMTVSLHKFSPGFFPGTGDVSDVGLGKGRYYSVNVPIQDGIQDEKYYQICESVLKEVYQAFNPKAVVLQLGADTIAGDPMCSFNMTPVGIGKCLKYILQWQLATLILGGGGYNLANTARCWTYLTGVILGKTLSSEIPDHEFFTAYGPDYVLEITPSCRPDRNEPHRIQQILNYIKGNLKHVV
Kind of experiment: Inhibition of HDAC8 (unknown origin).

The target of another experiment is Histone deacetylase 3 (Homo sapiens, UniProt O15379). Put plainly: Inhibition of HDAC3 (unknown origin).
Histone deacetylase 3, sequence (O15379 whole entry): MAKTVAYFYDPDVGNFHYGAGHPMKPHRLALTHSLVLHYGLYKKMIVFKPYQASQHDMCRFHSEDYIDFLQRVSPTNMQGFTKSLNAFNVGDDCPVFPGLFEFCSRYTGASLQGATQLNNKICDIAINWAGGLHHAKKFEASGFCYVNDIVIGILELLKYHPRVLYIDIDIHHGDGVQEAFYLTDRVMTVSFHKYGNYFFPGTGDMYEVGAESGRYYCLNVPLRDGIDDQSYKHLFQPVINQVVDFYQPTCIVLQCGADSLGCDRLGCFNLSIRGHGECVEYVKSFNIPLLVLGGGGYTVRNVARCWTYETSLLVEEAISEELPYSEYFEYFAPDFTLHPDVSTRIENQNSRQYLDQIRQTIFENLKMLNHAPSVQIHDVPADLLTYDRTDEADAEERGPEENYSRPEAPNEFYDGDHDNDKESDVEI
The next experiment concerns the target T2, Histone deacetylase 11 (Homo sapiens, UniProt Q96DB2).
T2 sequence (Q96DB2 whole entry): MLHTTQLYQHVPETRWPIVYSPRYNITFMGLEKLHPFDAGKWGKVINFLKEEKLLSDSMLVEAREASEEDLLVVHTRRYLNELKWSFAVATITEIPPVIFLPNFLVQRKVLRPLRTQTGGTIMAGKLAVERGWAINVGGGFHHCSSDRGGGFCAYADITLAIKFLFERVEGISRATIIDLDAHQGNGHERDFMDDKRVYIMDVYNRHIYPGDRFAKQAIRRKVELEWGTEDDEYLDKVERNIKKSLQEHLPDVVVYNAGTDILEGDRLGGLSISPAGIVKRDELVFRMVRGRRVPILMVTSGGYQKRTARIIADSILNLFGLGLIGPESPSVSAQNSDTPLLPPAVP
Kind of experiment: Inhibition of HDAC11 (unknown origin).

A further experiment concerns the target Histone deacetylase 2 (Homo sapiens, UniProt Q92769). Put plainly: Inhibition of HDAC2 (unknown origin).
Experiment [2] relates to MGC-803. Kind of experiment: Induction of cell cycle arrest in human MGC-803 cells assessed as accumulation at G2/M phase at 2 nM incubated for 24 hrs by propidium iodide staining based flow cytometry (reference value: 28.59 %). It counts as functional.
For experiment [3], the system named is MGC-803. Kind of experiment: Induction of apoptosis in human MGC-803 cells assessed as viable cells at 2 nM measured after 48 hrs by Annexin V-APC/PI double staining based flow cytometry assay (Rvb =93.5 %). In kind it is functional, cell-based. Background: In flow cytometry, cells or beads pass a laser one at a time.
Experiment [4] concerns MGC-803. Kind of experiment: Induction of apoptosis in human MGC-803 cells assessed as necrotic cells at 2 nM measured after 48 hrs by Annexin V-APC/PI double staining based flow cytometry assay (reference value: 0.44%). In kind it is functional, cell-based.
Experiment [5] has as its system MGC-803. Kind of experiment: Induction of apoptosis in human MGC-803 cells assessed as early apoptotic cells at 2 nM measured after 48 hrs by Annexin V-APC/PI double staining based flow cytometry assay (reference value: 2.42 %). It counts as functional, cell-based.
In experiment [6] the test system is MGC-803. Put plainly: Induction of cell cycle arrest in human MGC-803 cells assessed as accumulation at S phase at 2 nM incubated for 24 hrs by propidium iodide staining based flow cytometry (Rvb =31.51 %). It counts as functional.
Experiment [7] concerns MGC-803. Put plainly: Induction of cell cycle arrest in human MGC-803 cells assessed as accumulation at G1 phase at 2 nM incubated for 24 hrs by propidium iodide staining based flow cytometry (Rvb =39.64 %). It counts as functional.
The subject of experiment [8] is MGC-803. Kind of experiment: Induction of apoptosis in human MGC-803 cells assessed as late apoptotic cells at 2 nM measured after 48 hrs by Annexin V-APC/PI double staining based flow cytometry assay (reference value: 3.62 %). In kind it is functional, cell-based.

Histone deacetylase 2, sequence (Q92769 whole entry): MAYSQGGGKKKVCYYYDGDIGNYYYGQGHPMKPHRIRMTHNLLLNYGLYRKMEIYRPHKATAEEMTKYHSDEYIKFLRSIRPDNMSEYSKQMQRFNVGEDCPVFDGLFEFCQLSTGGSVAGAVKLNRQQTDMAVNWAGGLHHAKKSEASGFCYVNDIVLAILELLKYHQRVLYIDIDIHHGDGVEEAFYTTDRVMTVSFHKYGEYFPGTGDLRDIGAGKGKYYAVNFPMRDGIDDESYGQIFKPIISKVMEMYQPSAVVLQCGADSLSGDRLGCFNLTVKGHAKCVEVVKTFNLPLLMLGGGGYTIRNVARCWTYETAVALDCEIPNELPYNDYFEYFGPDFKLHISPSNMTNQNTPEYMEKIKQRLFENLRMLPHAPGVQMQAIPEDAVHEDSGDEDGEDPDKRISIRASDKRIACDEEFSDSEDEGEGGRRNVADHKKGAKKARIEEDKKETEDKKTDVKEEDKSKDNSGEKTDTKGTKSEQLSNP

Broadly, the IC50 is the concentration that gives 50% inhibition. In the case of `COc1ccc(/C=C\c2cc(OC)c(OC)c(OC)c2)cc1OCc1ccc(C(=O)NO)cc1`, the IC50 came out at 817 nM in the experiment on MCF7; 182 nM in the experiment on MGC-803 [1]; 389 nM in the experiment on U-937; 440 nM in the experiment on HeLa; 1330 nM in the experiment on HepG2; 0.44 µM in the experiment on A549. In addition, the IC50 on Tubulin (read-out: IC50) amounted to 8.6 µM; at Histone deacetylase, 0.39 µM.

On to `COc1ccc(C(=O)c2cc(OC)c(OC)c(OC)c2)cc1OCC(=O)NO`, for which the IC50 was 189 nM in the experiment on MCF7; 105 nM in the experiment on MGC-803 [1]; 1130 nM in the experiment with U-937; 753 nM with HeLa; 521 nM with HepG2; greater than 5 µM with A549. The IC50 on Tubulin (read-out: IC50) was determined as 19.6 µM; against Histone deacetylase it was 0.25 µM.

With `COc1ccc(/C=C\c2cc(OC)c(OC)c(OC)c2)cc1OCCCC(=O)NO`, the IC50 in the experiment with MCF7 stood at 982 nM; in the experiment with MGC-803 [1], 63 nM; with U-937, 2540 nM; in the experiment on HeLa it was 31 nM; in the experiment on HepG2, 81 nM; in the experiment on A549, 0.371 µM. Moreover, the results for the IC50 on Tubulin (read-out: IC50) and on Histone deacetylase were 5.2 µM and 1.4 µM, respectively.

For `O=C(CCCCCCC(=O)Nc1ccccc1)NO` [VORINOSTAT], in the experiment with Tubulin, the IC50 result was “Not Active”.

Take `O=C(NCC1(c2nc(-c3ccccc3)cs2)CCOCC1)c1cccc(-c2noc(C(F)(F)F)n2)c1`: the IC50 result on Histone deacetylase 1, on Histone deacetylase 8, against Histone deacetylase 3, on Histone deacetylase 11 and on Histone deacetylase 2 was “Not Active” in each case.

Regarding `COc1ccc(/C=C\c2cc(OC)c(OC)c(OC)c2)cc1O` [COMBRETASTATIN A4], the Activity entry in the experiment on MGC-803 [2] was “Dose-Dependent Effect”; in the experiment on MGC-803 [2] (record 2) it was 28.25%; with MGC-803 [6], 31.58%; in the experiment with MGC-803 [7], 40.88%. Moreover, the result in the experiment with MGC-803 [3], in the experiment on MGC-803 [4], in the experiment with MGC-803 [5] and in the experiment on MGC-803 [8] was Active. The IC50 was 2 nM in the experiment with MGC-803 [1], 1 nM in the experiment with U-937 and 9 nM in the experiment with HeLa.

Turning to `COc1ccc(/C=C\c2cc(OC)c(OC)c(OC)c2)cc1OCCCCC(=O)NO`, the IC50 was found to be 2810 nM with MCF7; 1130 nM with MGC-803 [1]; 3320 nM with U-937; 189 nM in the experiment with HeLa; 3560 nM with HepG2; 4.81 µM with A549.

Take `COc1ccc(C(=O)c2cc(OC)c(OC)c(OC)c2)cc1Oc1ccc(C(=O)NO)cc1`: the IC50 in the experiment on MCF7 is greater than 5000 nM; in the experiment on MGC-803 [1], greater than 5000 nM; in the experiment on U-937 it was greater than 5000 nM; in the experiment with HeLa, greater than 5000 nM; in the experiment on HepG2 it was greater than 5000 nM; in the experiment on A549, greater than 5 µM.

Take `COc1ccc(C(=O)c2cc(OC)c(OC)c(OC)c2)cc1OCC(=O)Nc1ccccc1N`: the IC50 was greater than 5000 nM in the experiment on MCF7; greater than 5000 nM in the experiment on MGC-803 [1]; 758 nM in the experiment on U-937; greater than 5000 nM in the experiment with HeLa; greater than 5000 nM in the experiment on HepG2; greater than 5 µM in the experiment on A549.

On to `COc1ccc(/C=C\c2cc(OC)c(OC)c(OC)c2)c(/C=C/C(=O)Nc2ccccc2N)c1`, for which the IC50 with MCF7 came to 2120 nM; with MGC-803 [1], 301 nM; with U-937, 3750 nM; in the experiment with HeLa it was 1960 nM; with HepG2 it was 2760 nM; in the experiment on A549, 4.69 µM.

For `COc1ccc(/C=C\c2cc(OC)c(OC)c(OC)c2)cc1Oc1ccc(C(=O)NO)cc1`, the IC50 in the experiment on MCF7 was 1470 nM; in the experiment with MGC-803 [1] it was 927 nM; in the experiment with U-937 it was 3500 nM; in the experiment on HeLa, 1470 nM; in the experiment on HepG2 it was 4550 nM; in the experiment on A549, 1.47 µM.

Source of the values: ChEMBL document CHEMBL4828751, “Discovery of novel tubulin/HDAC dual-targeting inhibitors with strong antitumor and antiangiogenic potency” (Eur J Med Chem, 2021).
